Source: PubChem BioAssay (NCI)
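Grown in 96-well plates, cells were treated for 48 hours with each compound at five concentrations. Insufficient inhibition: endpoint recorded as highest concentration tested. TGI denotes the concentration required for complete inhibition of growth.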

Key:
Experiment in all cases: NCI tumour cell line growth inhibition, 48 h
HT29 colon = system: HT29 colon
A498 renal = system: A498 renal
EKVX NSCLC = system: EKVX NSCLC
UACC-257 melanoma = system: UACC-257 melanoma
A549 NSCLC = system: A549 NSCLC
NCI-H522 lung = system: NCI-H522 lung
MDA-N = system: MDA-N
MDA-MB-231 breast = system: MDA-MB-231 breast
HCC-2998 colon = system: HCC-2998 colon
SK-MEL-28 melanoma = system: SK-MEL-28 melanoma
CCRF-CEM leukemia = system: CCRF-CEM leukemia
NCI-H460 lung = system: NCI-H460 lung
OVCAR-5 ovarian = system: OVCAR-5 ovarian
RPMI-8226 leukemia = system: RPMI-8226 leukemia
NCI/ADR-RES ovarian = system: NCI/ADR-RES ovarian
MOLT-4 leukemia = system: MOLT-4 leukemia
OVCAR-4 ovarian = system: OVCAR-4 ovarian
HCT-15 colon = system: HCT-15 colon
MDA-MB-435 = system: MDA-MB-435
SN12C renal = system: SN12C renal

SMILES | TGI (HT29 colon) | TGI (A498 renal) | TGI (EKVX NSCLC) | TGI (UACC-257 melanoma) | TGI (A549 NSCLC) | TGI (NCI-H522 lung) | TGI (MDA-N) | TGI (MDA-MB-231 breast) | TGI (HCC-2998 colon) | TGI (SK-MEL-28 melanoma) | TGI (CCRF-CEM leukemia) | TGI (NCI-H460 lung) | TGI (OVCAR-5 ovarian) | TGI (RPMI-8226 leukemia) | TGI (NCI/ADR-RES ovarian) | TGI (MOLT-4 leukemia) | TGI (OVCAR-4 ovarian) | TGI (HCT-15 colon) | TGI (MDA-MB-435) | TGI (SN12C renal)
O/N=C(\CC(O)(C(F)(F)F)C(F)(F)F)c1cccc(Cl)c1 | > 100 µM | > 100 µM | 67.6 µM | > 100 µM | > 100 µM | > 100 µM | > 100 µM | 56.9 µM | > 100 µM | > 100 µM | 47.4 µM | > 100 µM | > 100 µM | > 100 µM | > 100 µM | 38.8 µM | > 100 µM | > 100 µM | 85.9 µM | 
N#Cc1c(O)cc(=O)n2c1[nH]c1ccccc12 | > 100 µM | > 100 µM | > 100 µM | > 100 µM | > 100 µM | > 100 µM | > 100 µM | > 100 µM | > 100 µM |  | > 100 µM | > 100 µM | > 100 µM | > 100 µM | > 100 µM | > 100 µM | > 100 µM | > 100 µM | > 100 µM | > 100 µM
COc1ccc(/C=C2\Sc3nnc(CNc4ccc(Cl)cc4)n3N=C2c2cc(F)c(Cl)cc2Cl)cc1OC | > 100 µM | > 100 µM | > 100 µM | > 100 µM |  | > 100 µM | > 100 µM | > 100 µM | > 100 µM | > 100 µM | > 100 µM | > 100 µM | > 100 µM | 42.2 µM | 52.3 µM | > 100 µM | > 100 µM | > 100 µM | > 100 µM | 
COC(=O)C1=CN(C2CCCCC2)C2(c3ccccc3)c3ccccc3C(=O)OC(=O)C12 (stereo not drawn) | > 100 µM | > 100 µM | > 100 µM | > 100 µM | > 100 µM | > 100 µM | > 100 µM | > 100 µM | > 100 µM | > 100 µM | > 100 µM | > 100 µM | > 100 µM |  | > 100 µM | > 100 µM | > 100 µM | > 100 µM | > 100 µM | > 100 µM
Cc1nn2c(C(=O)N/N=C/c3ccc([N+](=O)[O-])cc3)c(C)nc2s1 | > 100 µM | > 100 µM | > 100 µM | > 100 µM | > 100 µM | > 100 µM | > 100 µM | 49.4 µM | > 100 µM | > 100 µM | > 100 µM | > 100 µM | > 100 µM |  | > 100 µM | > 100 µM | > 100 µM | > 100 µM | > 100 µM | > 100 µM
Cc1ccc(/C=C2\CCCC(CN(C)C)C2=O)cc1 (stereo not drawn) | 3.07 µM | 27.4 µM | 31.5 µM | 3.99 µM | 30.9 µM | 1.98 µM | 3.85 µM | 3.08 µM | 27.4 µM | 3.9 µM | > 100 µM | 13.1 µM | 29.5 µM |  | 17.1 µM | > 100 µM | 3.8 µM | 4.23 µM | 3.74 µM | 3.91 µM
